Experiments:
[1] = tested on: β-amyloid peptide production in 293 751 SWE cells (HEK293 transfected with APP751 Swedish mutation); assay: In vitro inhibition of β-amyloid production (ELISA, 293 751 SWE cells); assay type: cell-based, human; conditions: two hour incubation, n = 3
Experimental: This screening assay employed cells (HEK293=human kidney cell line) which were stably transfected with the gene for amyloid precursor protein 751 (APP751) containing the double mutation Lys651Met652 to Asn651Leu652 (APP751 numbering) in the manner described in International Patent Application Publication No. 94/10569. This mutation is commonly called the Swedish mutation and the cells, designated as “293 751 SWE”, were plated in Corning 96-well plates at 2-4×10^4 cells per well in Dulbecco's minimal essential media (Sigma, St. Louis, Mo.) plus 10% fetal bovine serum. Cell number is important in order to achieve β-amyloid ELISA results within the linear range of the assay (˜0.03 to 1.0 ng per mL).
Following overnight incubation at 37° C. in an incubator equilibrated with 5% carbon dioxide, media are removed and replaced with a stock solution of test compound (200 μL per well) for a two hour incubation period.
At the end of the incubation period, 100 μL from each well, of conditioned media or appropriate dilutions thereof are transferred into an ELISA plate pre-coated with antibody 266 [P. Seubert, Nature (1992) 359:325-327] against amino acids 13-28 of β-amyloid peptide as described in International Patent Application Publication No. 94/10569 and stored at 4° C. overnight. An ELISA assay employing labeled antibody 3D6 [P. Seubert, Nature (1992) 359:325-327] against amino acids 1-5 of β-amyloid peptide is run the next day to measure the amount of β-amyloid peptide produced. The results of the β-amyloid peptide ELISA are fit to a standard curve and expressed as ng/mL β-amyloid peptide and the concentration of test compounds producing 50% inhibition (IC50) of β-amyloid peptide production are estimated using a four parameter logistic model within Graph Pad Prism (San Diego, Calif.).

plasma A-beta = assay: In vivo suppression of β-amyloid, blood assay (plasma total β-amyloid ELISA); parameters: species or system PDAPP mice; conditions: 3 mg/kg b.i.d. for 7 days; p<0.001 relative to vehicle control
Experimental: (§1) This example illustrates how the compounds of this invention could be tested for in vivo suppression of β-amyloid release and/or synthesis. For these experiments, 3 to 4 month old PDAPP mice are used [Games et al., (1995) Nature 373:523-527]. Depending upon which compound is being tested, the compound is usually formulated at between 1 and 10 mg/mL. Because of the low solubility factors of the compounds, they may be formulated with various vehicles, such as corn oil; 10% ethanol in corn oil; 2-hydroxypropyl-β-cyclodextrin (Research Biochemicals International, Natick, Mass.); and carboxy-methyl-cellulose (Sigma Chemical Co., St. Louis, Mo.).
For acute efficacy studies, PDAPP mice are dosed orally by gavage and 3 hours later the animals are euthanized via CO2 narcosis. For sub-chronic studies, PDAPP mice are dosed once-a-day or twice-a-day for 7 days, and sacrificed 3 hours after the last dose. […]
The Total β-amyloid 1-x sandwich ELISA, quantitating essentially all species of β-amyloid (including β-amyloid 1-40 and β-amyloid 1-42), employs two monoclonal antibodies (mAb) to β-amyloid. […]
The 266 and 21F12 capture mAbs are coated at 10 μg into 96-well immunoassay plates (Costar, Cambridge, Mass.) overnight at room temperature. […] Reaction product is quantified using a Molecular Devices Vmax (Molecular Devices, Menlo Park, Calif.) measuring the difference in absorbance at 450 nm and 650 nm. […]

Hippocampal Total A-beta = assay: In vivo suppression of β-amyloid, brain assay (hippocampal total A-beta ELISA); conditions: young heterozygous PDAPP mice, sacrifice 3 hours post-administration
Experimental: as §1
For acute efficacy studies, PDAPP mice are dosed orally by gavage and 3 hours later the animals are euthanized via CO2 narcosis. For sub-chronic studies, PDAPP mice are dosed once-a-day or twice-a-day for 7 days, and sacrificed 3 hours after the last dose. Blood is taken by cardiac puncture using a 1 cc 25G ⅝″ tuberculin syringe/needle coated with solution of 0.5 M EDTA, pH 8.0. The blood is placed in a Becton-Dickinson vacutainer tube containing EDTA and spun down for 15 minutes at 1500×g at 5° C. The brains of the mice are then removed and the cortex and hippocampus are dissected out, placed in labeled eppendorf tubes and rapidly frozen on dry ice.
To prepare hippocampal and cortical tissue for enzyme-linked immunosorbent assays (ELISAs) each brain region is homogenized in 10 volumes of ice cold guanidine buffer (5.0 M guanidine-HCl, 50 mM Tris-HCl, pH 8.0) using a Polytron. The homogenates are gently rocked on a rotating platform for three to four hours at room temperature and stored at −20° C. prior to quantitation of β-amyloid.
The brain homogenates are diluted 1:10 with ice-cold casein buffer [0.25% casein, phosphate buffered saline (PBS), 0.05% sodium azide, 20 μg/ml aprotinin, 5 mM EDTA, pH 8.0, 10 μg/ml leupeptin], thereby reducing the final concentration of guanidine to 0.5 M, before centrifugation at 16,000×g for 20 minutes at 4° C. Samples are further diluted, if necessary, to achieve an optimal range for the ELISA measurements by the addition of casein buffer with 0.5 M guanidine hydrochloride added. The β-amyloid standards (1-40 or 1-42 amino acids) are prepared such that the final composition equaled 0.5 M guanidine in the presence of 0.1% bovine serum albumin (BSA).
The Total β-amyloid 1-x sandwich ELISA, quantitating essentially all species of β-amyloid (including β-amyloid 1-40 and β-amyloid 1-42), employs two monoclonal antibodies (mAb) to β-amyloid. The capture antibody, 266 [P. Seubert, Nature (1992) 359:325-327], is specific to amino acids 13-28 of β-amyloid. The antibody 3D6 [Johnson-Wood et al., PNAS USA (1997) 94:1550-1555], which is specific to amino acids 1-5 of β-amyloid, is biotinylated and served as the reporter antibody in the assay. The 3D6 biotinylation procedure employs the manufacturer's (Pierce, Rockford, Ill.) protocol for NHS-biotin labeling of immunoglobulins except that 100 mM sodium bicarbonate, pH 8.5 buffer is used.
The 266 and 21F12 capture mAbs are coated at 10 μg into 96-well immunoassay plates (Costar, Cambridge, Mass.) overnight at room temperature. The plates are then aspirated and blocked with 0.25% human serum albumin in PBS buffer for at least 1 hour at room temperature, then stored desiccated at 4° C. until use. The plates are rehydrated with wash buffer (Tris-buffered saline, 0.05% Tween 20) prior to use. […]

Structure (SMILES): CC(C)[C@H](O)C(=O)N[C@@H](C)C(=O)N[C@H]1C=C(c2ccccc2)C=CN(C)C1=O (single isomer, unassigned) [1 (diasteromer 2)]
- IC50 ([1]; Homo sapiens, HEK293, 2 h): 5 ± 0.7 nM
- reduction of plasma A-beta (plasma A-beta): 54%
- Hippocampal Total A-beta % REDUCTION (Hippocampal Total A-beta; 0.1 mg/kg oral, n = 1 experiment): 18%
- Hippocampal Total A-beta % REDUCTION (Hippocampal Total A-beta; 0.3 mg/kg oral, mean ± SD, n = 2 experiments): 31 ± 13%
- Hippocampal Total A-beta % REDUCTION (Hippocampal Total A-beta; 1 mg/kg oral, mean ± SD, n = 3 experiments): 48 ± 11%
- Hippocampal Total A-beta % REDUCTION (Hippocampal Total A-beta; 3 mg/kg oral, mean ± SD, n = 5 experiments): 59 ± 5%
- Hippocampal Total A-beta % REDUCTION (Hippocampal Total A-beta; 10 mg/kg oral, n = 1 experiment): 69%

Structure (SMILES): CC(C)[C@H](F)C(=O)N[C@@H](C)C(=O)NC1C=C(c2ccccc2)C=CN(C)C1=O (single isomer, unassigned) [2 (diastereomer 1)]
- IC50 [1]: 3330 ± 430 nM

Structure (SMILES): CC(C)[C@H](F)C(=O)N[C@@H](C)C(=O)NC1C=C(c2ccccc2)C=CN(C)C1=O (single isomer, unassigned) [2 (diastereomer 2)]
- IC50 [1]: 8 ± 0.8 nM

Structure (SMILES): CC(C)C1=CC(NC(=O)[C@H](C)NC(=O)[C@@H](O)C(C)C)C(=O)N(C)C=C1 (single isomer, unassigned) [3 (diastereomer 1)]
- IC50 [1]: 10700 ± 1800 nM

Structure (SMILES): CC(C)C1=CC(NC(=O)[C@H](C)NC(=O)[C@@H](O)C(C)C)C(=O)N(C)C=C1 (single isomer, unassigned) [3 (diastereomer 2)]
- IC50 [1]: 36 ± 1 nM
